In brackets after ≈: the same amount, converted by molar mass.
Key:
[1] = test system: Aspergillus niger; test: Antimicrobial activity against Aspergillus niger; format: functional, organism-based
[2] = test system: Candida albicans; test: Antimicrobial activity against Candida albicans; format: functional, organism-based
[3] = test system: Cryptococcus neoformans; test: Antimicrobial activity against Cryptococcus neoformans; format: functional, organism-based
[4] = test system: Trichophyton mentagrophytes; test: Antimicrobial activity against Trichophyton mentagrophytes; format: functional, organism-based
[5] = test system: P388; test: Cytotoxicity against mouse P388 cells; format: functional, cell-based
[6] = test system: KB; test: Cytotoxicity against human KB cells; format: functional, cell-based

SMILES: CCC(C)C(=O)C1=C(O)C(C)=C2O[C@@H](C(C)(C)O)C[C@@]2(C/C=C(\C)CCC=C(C)C)C1=O (stereo partly specified) [YOJIRONIN E]
- IC50 [1]: 16 µg/mL (≈ 36 µM)
- IC50 [2]: 4 µg/mL (≈ 9 µM)
- IC50 [3]: 4 µg/mL (≈ 9 µM)
- IC50 [4]: 4 µg/mL (≈ 9 µM)
- IC50 [5]: 3.7 µg/mL (≈ 8.32 µM)
- IC50 [6]: 5 µg/mL (≈ 11.2 µM)
